From ChEMBL document CHEMBL3044888, “Fungicidal activity of indole derivatives against some plant pathogenic fungi” (J Pestic Sci, 2010) come the findings set out here.

Common to all, as to assay type: functional, organism-based
In one experiment the test system is Rhizoctonia solani. In words: Fungicidal activity against Rhizoctonia solani assessed as inhibition of hyphal growth by radial growth test.
Experiment [1] concerns Globisporangium debaryanum. Put plainly: Fungicidal activity against Pythium debaryanum assessed as inhibition of hyphal growth by radial growth test.
Another experiment has as its system Macrophomina phaseolina. In words: Fungicidal activity against Macrophomina phaseoli assessed as inhibition of hyphal growth by radial growth test.
For the next experiment, the system named is Fusarium culmorum. Put plainly: Fungicidal activity against Fusarium culmorum assessed as inhibition of hyphal growth by radial growth test.

Values after ≈ are worked out from the molar mass of the structure shown.

One may read the IC50 as the concentration needed to halve the response being measured. For `CC(=O)n1cc(CCCC(=O)O)c2ccccc21`, the concentration for half-maximal inhibition (IC50) in the experiment with Rhizoctonia solani amounted to 117 mg/L (≈ 477 µM); in experiment [1] it was 19 mg/L (≈ 77.5 µM); in the experiment with Macrophomina phaseolina, 59 mg/L (≈ 241 µM); with Fusarium culmorum it was 26.6 mg/L (≈ 108 µM).

Regarding `O=C(O)CCCc1c[nH]c2ccccc12`, the IC50 in the experiment with Rhizoctonia solani stood at 644 mg/L (≈ 3170 µM); in experiment [1] it was 249 mg/L (≈ 1230 µM); in the experiment with Macrophomina phaseolina, 699 mg/L (≈ 3440 µM); in the experiment with Fusarium culmorum it was 576 mg/L (≈ 2830 µM).

In the case of `COCC(=O)N(c1c(C)cccc1C)C(C)C(=O)OC` (stereo not drawn) [METALAXYL], the 50% inhibitory concentration (IC50) came to 231 mg/L (≈ 827 µM) with Rhizoctonia solani, 211 mg/L (≈ 755 µM) in experiment [1], 173 mg/L (≈ 619 µM) in the experiment on Macrophomina phaseolina and 192 mg/L (≈ 687 µM) with Fusarium culmorum.

`O=C(O)Cc1cn(C(=O)c2ccccc2)c2ccccc12`: the IC50 in the experiment on Rhizoctonia solani was 1240 mg/L (≈ 4450 µM); in experiment [1] it was 171 mg/L (≈ 612 µM); in the experiment on Macrophomina phaseolina it was 572 mg/L (≈ 2050 µM); in the experiment on Fusarium culmorum, 523 mg/L (≈ 1870 µM).

As for `O=C(O)CCCc1cn(C(=O)c2ccccc2)c2ccccc12`, the half-inhibitory concentration (IC50) was 663 mg/L (≈ 2160 µM) in the experiment on Rhizoctonia solani, 488 mg/L (≈ 1590 µM) in experiment [1], 448 mg/L (≈ 1460 µM) with Macrophomina phaseolina and 513 mg/L (≈ 1670 µM) in the experiment with Fusarium culmorum.

`O=C(O)Cc1c[nH]c2ccccc12` [INDOLE-3-ACETIC ACID]: the half-maximal inhibitory concentration (IC50) with Rhizoctonia solani was 1010 mg/L (≈ 5760 µM); in experiment [1], 301 mg/L (≈ 1720 µM); with Macrophomina phaseolina, 807 mg/L (≈ 4610 µM); in the experiment on Fusarium culmorum, 420 mg/L (≈ 2400 µM).

`O=C(c1ccccc1)n1c(-c2ccccc2)cc2ccccc21`: the half-inhibitory concentration (IC50) with Rhizoctonia solani turned out to be 122 mg/L (≈ 411 µM); in experiment [1] it was 81 mg/L (≈ 272 µM); in the experiment on Macrophomina phaseolina it was 355 mg/L (≈ 1190 µM); with Fusarium culmorum, 99.9 mg/L (≈ 336 µM).
